The record followed here is US20070225242A1, “Method and composition for treating and preventing tumor metastasis in vivo” (The Board of Trustees of the Leland Stanford Junior …, priority 2005, published 2007).

For one series, the system named is MMP-2. In words: MMP gelatin zymography of RAW macrophages incubated with conditioned media. As to conditions: BMDCs incubated 24 h with CM from hypoxic Wt cells. The series is classed as cell-based. The method, then:
We examined changes in BMDC MMP activity induced by CM (FIG. 21C). MMP-9 activity was not affected by LOX or FN alone, but was elevated in CM supplemented with FN regardless of LOX status. This is consistent with our finding that FN has a stronger influence than LOX on BMDC migration.
Gelatin enzymography was performed to assess MMP activity as described. Protein concentrations were quantified to ensure equal loading.

Series [1] relates to LOX. The series is described as follows: LOX fluorescent activity assay, in vivo (plasma of treated tumor-bearing mice). The conditions noted are these: BAPN-treated and antibody-treated mice, terminal bleeds. The source says:
(§1) LOX activity may be measured in a number of ways, using a soluble elastin or soluble collagen with labeled lysine as a substrate. Details of an activity assay are given in Royce et al., “Copper metabolism in mottled mouse mutants. The effect of copper therapy on lysyl oxidase activity in brindled (Mobr) mice,” Biochem J. 1982 Feb. 15; 202(2): 369-371. Especially preferred is a […] assay. One is described in Palamakumbura, et al. “A fluorometric assay for detection of lysyl oxidase enzyme activity in biological samples,” Anal Biochem. 2002 Jan. 15; 300(2):245-51. This method was used in the present work to assess LOX inhibition by BAPN and by anti-LOX antibody in cells in culture (using conditioned media) and in mice (using plasma), in a 96-well format.
(§2) LOX activity assay. The original method is described in Folgelgren, et al. J. Biol. Chem. 280:24690-24697 (2005). For the in vivo data, terminal bleeds were taken at the end of the experiment described above from untreated (control) mice, 2 and 3 wk BAPN mice, and antibody-treated mice. […] For the in vitro data, 50 μl of conditioned phenol-red-free medium was taken from cells incubated for 24 h under conditions of hypoxia. Samples were incubated overnight at 37° C. with different concentrations of BAPN or with purified LOX antibody at a concentration equivalent to 20 mg kg^−1 dose. Again, 0=fluorescent reading for 500 μM BAPN.

The test system of another series is MDA-MB 231 cells. The series is described as follows: MDA-MB 231 cells grown as orthotopic tumors in nude mice; lung and liver metastases. The method, then: In addition, MDA231 cells were grown as orthotopic tumors in nude mice. […] In FIGS. 5 A and B, data were obtained by microscopic quantification of metastases in lungs and livers stained with hematoxylin and eosin. […] 4 wk BAPN represents treatment started at week 4, etc.
To evaluate the therapeutic usefulness of inhibiting LOX, mice with control MDA231 tumors were treated with β-aminoproprionitrile (BAPN), a specific and irreversible inhibitor of LOX enzymatic activity. […] In FIG. 5C, metastases were counted weekly over six weeks for ten sections (n=5 mice). Solid line, with circles control lung; dashed line with triangles, control liver; solid line with squares, BAPN lung; dashed line with squares, BAPN liver. BAPN was started at week 2. Antibody doses: unlabelled, 20 mg kg^−1; asterisk, 4 mg kg^−1; two asterisks, 1 mg kg^−1. Control, n=10; LOX shRNA, n=10; 4 wk BAPN, n=10; 3 wk BAPN, n=3; 2 wk BAPN, n=3; LOX antibody, n=5. Treatment details are given in Methods.
MDA-MB 231 cells were grown as subcutaneous orthotopic tumors in 6-week-old female Nude (nu/nu) mice following intradermal injection of 1×10^7 cells in 0.1 ml of PBS into the mammary fat pad. Mice were sacrificed and tumors excised six weeks after inoculation. […] Lung and liver metastases were defined as gross lesions of at least 25 cells.

Series [2] concerns the target T1, LOX (Homo sapiens, UniProt P28300).
T1 construct: endogenous in cells; host or cells: Hypoxic cancer cells
T1 sequence (P28300 169-417): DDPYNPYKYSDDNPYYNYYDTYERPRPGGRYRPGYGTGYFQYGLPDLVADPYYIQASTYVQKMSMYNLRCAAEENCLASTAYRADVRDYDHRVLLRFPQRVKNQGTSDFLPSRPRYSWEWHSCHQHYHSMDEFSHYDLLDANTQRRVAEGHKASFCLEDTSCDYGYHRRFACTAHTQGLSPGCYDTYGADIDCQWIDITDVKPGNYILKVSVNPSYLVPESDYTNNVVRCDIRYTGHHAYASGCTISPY
In words: LOX fluorescent activity assay, in vitro (conditioned medium from hypoxic cells). The format is biochemical. The conditions noted are these: 500 μM BAPN, set as 0 fluorescence.
Description: as §1, §2

Series [3] concerns A549 Non-Small Cell Lung Cancer Cells. In words: A549 cells injected into the tail vein of mice. The format is in vivo. The conditions noted are these: sacrificed at Day 22; BAPN 100 mg/kg daily. The method, then: Human lung cancer A549 cells (ATCC CCL 185), known to be highly metastatic, were generated to stably express shRNA targeting LOX, as described in Methods. […] 1×10^6 cells were injected into the tail vein of mice (all cells go to the lung).
Lungs from the dead mice bearing control tumors were formalin fixed, paraffin embedded and H&E stained to quantify lung tumors. Most lungs contained no tumors but all mice had numerous lymph node metastases and one had liver metastases. N=5 mice bearing lung tumors expressing LOX shRNA were sacrificed at Day 22. […] In addition, n=5 mice bearing control tumors treated daily with BAPN (100 mg/kg) were sacrificed at Day 22. […] The number of lung tumors for the A549 control animals is low because it is believed that the tumors metastasized out of the lung.
Wild-type or LOX shRNA A549 Non-Small Cell Lung Cancer Cells were injected into the tail vein of immune deficient mice and analyzed for survival differences for a period of 181 days. 100% of animals with wild-type tumors died within 35 days compared with only 40% of animals stably transfected with a shRNA to LOX. Some animals were allowed two weeks to develop metastases, and then were left untreated or treated twice weekly with 2 mg/kg of the LOX antibody in Example 7. FIG. 12 is a Kaplan-Meyer plot showing survival of the animals.

Where [4] appears, read: BAPN 100 mg kg-1 daily i.p. or antibody 20 mg kg-1 twice weekly, control MDA231 tumors.

As for `N#CCCN` [BAPN, β-aminoproprionitrile], the MMP-2 activity entry with MMP-2 was “reduced”. Further, the “LOX activity levels in the blood” value with LOX [1] is given as “Reduced LOX activity levels”. The “effect on metastatic tumors already formed” value in the series on MDA-MB 231 cells (4 wk BAPN, treatment started at week 4) is listed as “eliminated tumors that had formed”. Moreover, in the series with MDA-MB 231 cells (setting [4]), the liver metastases result was “did not have any lung metastases or liver metastases” and the lung metastases result is recorded as “did not have any lung metastases”. In addition, the “metastatic lesions formed in orthotopic studies” value with MDA-MB 231 cells (BAPN treated mice) is listed as “completely absent”. Moreover, the deleterious side effects result in the series with MDA-MB 231 cells (antibody up to 20 mg kg-1 twice weekly, BAPN 100 mg kg-1 daily i.p. for four, three or two weeks) is on record as “no deleterious side effects”. Moreover, in the series with MDA-MB 231 cells (inhibition of LOX with shRNA, BAPN or antibody), the primary tumor growth entry is on record as “slight effect on primary tumor growth”. Besides, the “invasion of primary tumors” value in the series with MDA-MB 231 cells (primary tumors from treated mice or tumors expressing LOX shRNA) is recorded as “showed evidence of invasion”. Moreover, the liver metastases result with MDA-MB 231 cells (reduced antibody doses (4, 1 mg kg-1) or reduced periods of BAPN treatment) was “no liver metastases”. Also, the lung metastases entry in the series with MDA-MB 231 cells (reduced antibody doses (4, 1 mg kg-1) or reduced periods of BAPN treatment, even when metastases had already formed) is “significantly fewer lung metastases”. Also, the LOX inhibition result on LOX [2] was “complete LOX inhibition”. In addition, in series [3], the lung tumors result is “very few tumors” and the metastases entry is listed as “no metastases”.
